The subject of this data set is Prostate cancer cells (i.e., JHU31). The experiment in a line: Cancer cell viability, MTS assay, DOX-loaded nanoparticles. Type of data set: cell-based. Conditions: 37° C., 24 hours; nanoparticles 500 μg/ml. On the procedure: In order to investigate the pharmacological activity of the in vitro released DOX from the functionalized copolymer magnetic nanoparticles, cancer cell viability was conducted using MTS assays (Promega) according to the manufacturer's instruction. Prostate cancer cells (i.e., JHU31) were cultured to confluence, harvested by trypsinization, and dispersed in RPMI supplemented with 10% serum and 1% penicillin-streptomycin. Cells were seeded at a density of approximately 10,000 cells/well in 24-well plates for 24 hours at 37° C., and then were then incubated with nanoparticles, DOX-loaded nanoparticles, and free DOX. The concentration of functionalized copolymer magnetic nanoparticles and DOX-loaded functionalized copolymer magnetic nanoparticles was 500 μg/ml. This nanoparticle concentration was selected according to drug release results from the nanoparticles indicated above and the optimal inhibition dose of DOX on prostate cancer cell growth studies. The prostate cancer cells were incubated with each group at 37° C., 41° C., and temperature cycles between 37° C. and 41° C. (one hour at each temperature for one cycle) for 24 hours.
(In general: Formazan colour is commonly taken as a measure of viable cells.)

Structures are written as SMILES.

As for `COc1cccc2c1C(=O)c1c(O)c3c(c(O)c1C2=O)C[C@@](O)(C(=O)CO)C[C@@H]3O[C@H]1C[C@H](N)[C@H](O)[C@H](C)O1` [DOX, doxorubicin], the “cell viability in comparison to the control” value worked out at 20%.
